Test results published in US20150017673A1, “COMPOSITIONS AND METHODS FOR DRUG-SENSITIZATION OR INHIBITION OF A CANCER CELL” (priority 2012, published 2015).
Read-outs that look alike come from different tables or passages of the source. One block for each molecule: values may come before it. Numbered stars: 1 amine (or outer) side, 2 acyl side, 3 side chain; on linkers, the order of the positions; unused ones are H or OH. Bridge positions count the residues as written; N and C are the ends. Square brackets hold non-standard residues; d marks the D form. Peptide text beside a SMILES is read from it. I, II: the chains in the order shown. Actinocin(9to1) = Cc1c2oc3c(C)ccc(C(=O)[*:1])c3nc-2c(C(=O)[*:2])c(N)c1=O; NMeV = CN[C@H](C(=O)O)C(C)C; Sar = CNCC(=O)O

What was measured:
[1] = system: ROS in ADR-RES ovarian cells; test: Intracellular ROS (CellROX, flow cytometry) in ADR-RES cells; type: cell-based; conditions: 10 uM, 2 hrs
Source text: (§1) Cells were then stained with the fluorescent ROS indicator, CellROX, and subjected to flow cytometry to quantitate total intracellular ROS.

ROS in G3 lymphoma cells = test: Intracellular ROS (CellROX, flow cytometry) in G3 cells; type: cell-based, human; conditions: 10 uM, 2 hrs
Description: as §1
The electron transport chain (ETC) is known to be a primary generator of ROS in the cell. Most of the ROS is generated by Complexes I and III of the ETC Inhibition of Complex I results in electrons piling up and leaking to react with oxygen to produce ROS.
(§2) All samples were analyzed at the same time in flow cytometry.

[2] = system: ROS in OVCAR8 ovarian cells; test: Intracellular ROS (CellROX, flow cytometry) in OVCAR8 cells; type: cell-based; conditions: 10 uM, 2 hrs, degree much less than in resistant lines
Source text: as §1

lymphoma cell line G3 = test: Cell growth assay (resazurin fluorescence) on CHOP-resistant G3 NHL cells; type: cell-based, human; conditions: for Magnitude of potentiation in combination with doxorubicin: G3, lymphoma B cells; for IC50 / Fold increase in potency over DOX alone: lymphoma cell line G3
Description: (§3) Compositions were tested on CHOP-resistant G3 NHL cells that had been cultivated in RPMI medium for five days. Prior to assay, the cells were counted by haemocytometer and cell concentration standardized to 625,000 cells/ml. Test drugs were solubilized in 100% DMSO and then diluted to final assay concentration with 0.1M phosphate buffered saline (PBS) and a final DMSO concentration of 0.5%. Cells were added to assay plates containing the test drugs (rifabutin+148 ng/ml, 74 ng/ml, 37 ng/ml, or 0 ng/ml doxorubicin) and allowed to incubate for 96 hours at 37° C. and 5% CO2. The metabolic dye rezasurin was added to the wells of the assay plate at a final concentration of 20 μg/ml and the plates were incubated for an additional 24 hours. The plates were then read in a BMG Polarstar plate reader at wavelength (573-605) and the data plotted as OD versus increasing dilutions (i.e. decreasing total amounts) of rifabutin derivative concentration.

[3] = system: drug-sensitive ovarian cancer cell line OVCAR-5; test: Cell growth assay on OVCAR-5 cells; type: cell-based; conditions: for Magnitude of potentiation in combination with doxorubicin: OVCAR-5, ovarian carcinoma; for IC50: Homo sapiens
Description: as §3
(§4) In these experiments, the following cell lines were used: CHOP-resistant NHL cell line G3, CHOP-sensitive NHL cell line CRL2631, the multi-drug resistant sarcoma cell line MES-SA-Dx5; multi-drug-resistant breast cancer cell line MDA-MB-231, multi-drug resistant ovarian carcinoma cell line SK-OV3, multi-drug resistant ovarian cancer cell line NCI/ADR-RES, drug-sensitive ovarian cancer cell line OVCAR-5, and multi-drug resistant ovarian cancer cell line OVCAR-3.
(§5) Additional cell lines used include: ovarian cancer OVCAR-8, T lymphoblastoid leukemia MOLT-4, dexamethasone-resistant multiple myeloma MM.1R, myeloid leukemia cells HL-60, osteosarcoma cells U-2 OS, and myeloma RPMI 8226.

[4] = system: multi-drug resistant ovarian carcinoma cell line SK-OV3; test: Cell growth assay on SK-OV3 cells; type: cell-based, human; conditions: SK-OV3, ovarian carcinoma
Description: as §3
as §4, with “OVCAR-3. […]” for “OVCAR-3.”

[5] = system: primary human fibroblasts; conditions: with and without 2 uM Dox
[6] = system: dexamethasone-resistant multiple myeloma MM.1R; test: Cell growth assay on MM.1R cells; type: cell-based; conditions: for Fold increase in potency: with vs without Rifabutin
Description: as §3, §5

[7] = system: multi-drug resistant ovarian cancer cell line OVCAR-3; test: Cell growth assay on OVCAR-3 cells; type: cell-based; conditions: for IC50: Homo sapiens
Description: as §3
as §4, with “OVCAR-3. […]” for “OVCAR-3.”

calcium in G3 cells = test: Calcium mobilization (Fluo-4AM, flow cytometry); type: cell-based, human; conditions: Dox-resistant cells (G3R, 10R, WSUR), 10 uM, 2 hrs, FIG. 41B/41C
Description: MDR/P-gp activity is closely associated with calcium status in the cell, so calcium modulators were tested for effects on ROS. […] Relatively Dox-sensitive lymphoma (CRL2631, 10S, WSU) and ovarian carcinoma (OVCAR8) and more Dox-resistant lymphoma (G3R,10R, WSUR) and ovarian carcinoma (ADR) were treated with 10 uM […] for 2 hrs. […] Cells were co-stained with the cell-permeable red fluorescent ROS indicator, CellROX, and cell-permeable green fluorescent calcium indicator, Fluo-4AM, and then subjected to flow cytometry to quantitate changes in ROS and calcium levels.
as §2

[8] = system: multi-drug resistant sarcoma cell line MES-SA-Dx5; test: Cell growth assay on MES-SA-Dx5 cells; type: cell-based; conditions: for Magnitude of potentiation in combination with doxorubicin: MES-SA-Dx5, uterus sarcoma
Description: as §3, §4, §5

[9] = system: T lymphoblastoid leukemia MOLT-4; test: Cell growth assay on MOLT-4 cells; type: cell-based
Description: as §3, §5

[10] = system: multi-drug resistant ovarian cancer cell line NCI/ADR-RES; test: Cell growth assay on NCI/ADR-RES cells; type: cell-based; conditions: NCI/ADR-RES, ovarian carcinoma
Description: as §3, §4, §5

[11] = system: G3 CHOP-resistant NHL cells; conditions: fourth study
Description: In a first efficacy study, 6-8 week old female SCID mice (7 mice per treatment arm) were injected subcutaneously on both flanks with 1×10^7 G3 CHOP-resistant NHL cells. Once palpable tumors (about […] size) appeared, therapies (CHOP or CHOP+rifabutin) were started. CHOP was administered at the maximum tolerated dose (cyclophosphamide, 40 mg/kg i.v.; doxorubicin, 3.3 mg/kg i.v.; vincristine, 0.5 mg/kg i.v.; and prednisone, 0.2 mg/kg orally daily for 5 d) weekly for 3 weeks. Rifabutin in an amount of 100 mg/kg was administered on the day of each CHOP treatment and 24-hours later by gavage. Mouse body weight and tumor size were monitored every two days and tumor size measured by caliper. The tumor volume formula (L*W*W)/2 was used to calculate tumor mass.
A second efficacy study was conducted where mice were treated before the appearance of palpable tumors. In that experiment, one week after transplantation of CHOP-resistant G3 cells, one group (7 mice) was treated with CHOP-only and a second group (8 mice) was treated with CHOP+rifabutin.
A third study was conducted in which mice injected with CHOP-resistant G3 cells received reduced dosages of CHOP in combination with 33 mg/kg rifabutin. CHOP+rifabutin was administered weekly beginning one week post-inoculation. Control mice were given no CHOP or rifabutin.
SCID mice were injected with CHOP-resistant G3 cells in the same manner as the first efficacy study above. Treatments began 2 weeks post-inoculation and were administered twice weekly.

[12] = with 1 μM doxorubicin, read-out: IC50 (μM) with doxorubicin (1 μM)
[13] = therapeutic drug alone, read-out: IC50
[14] = therapeutic drug with Rifabutin, read-out: IC50 (μM) with Rifabutin

SMILES: COC(=O)[C@H]1[C@H]2C[C@@H]3c4[nH]c5cc(OC)ccc5c4CCN3C[C@H]2C[C@@H](OC(=O)c2cc(OC)c(OC)c(OC)c2)[C@@H]1OC [reserpine]
total intracellular ROS [1]: induced ROS | total intracellular ROS (ROS in G3 lymphoma cells): induced ROS | total intracellular ROS [2]: induced ROS

SMILES: COC1C=COC2(C)Oc3c(C)c(O)c4c(c3C2N)C2=NC3(CCN(C(=O)OCC(C)C)CC3)NC2=C(NC(=O)C(C)=CC=CC(C)C(O)C(C)C(O)C(C)C(OC(C)=O)C1C)C4=O (stereo not drawn) [RTI-176, 11-deoxy-11-amino-4-deoxy-3,4[2-spiro-[1-(isobutyloxycarbonyl)-piperidin-4-yl]]-(1H)-imidazo-(2,5-dihydro)rifamycin S]
Magnitude of potentiation in combination with doxorubicin (lymphoma cell line G3): +++ (potentiation greater than 5 fold increase) | IC50 (lymphoma cell line G3; analog alone, read-out: IC50): > 64 µM | Fold increase in potency over DOX alone (lymphoma cell line G3): 5.2 fold | IC50 (lymphoma cell line G3; [12]): 0.45 µM | Magnitude of potentiation in combination with doxorubicin [3]: + (potentiation between 1.2 to 2.0 fold increase) | Magnitude of potentiation in combination with doxorubicin [4]: +++ (potentiation greater than 5 fold increase) | comparative cytotoxicity to normal cells [5]: not toxic to normal cells

IC50 ([3]; therapeutic drug alone, OVCAR-5, read-out: IC50): 0.17 µM | IC50 ([3]; therapeutic drug with Rifabutin, OVCAR-5, read-out: IC50 (μM) with Rifabutin): 0.08 µM
SMILES: CC(C)C[C@H](NC(=O)[C@H](Cc1ccccc1)NC(=O)c1cnccn1)B(O)O [Velcade, bortezomib]
Fold increase in potency ([3]; with vs without Rifabutin, OVCAR-5): 2.1 fold

SMILES: CC[C@@]1(O)C(=O)OCc2c1cc1n(c2=O)Cc2cc3ccccc3nc2-1 [Camptothecin, camptothecin]
IC50 [6, 13]: 1.13 µM | IC50 [6, 14]: 0.3 µM | Fold increase in potency [6]: 3.8 fold

IC50 ([7]; therapeutic drug alone, OVCAR-3, read-out: IC50): > 32 µM | IC50 ([7]; therapeutic drug with Rifabutin, OVCAR-3, read-out: IC50 (μM) with Rifabutin): 10.9 µM | IC50 [6, 13]: 4 µM | IC50 [6, 14]: 2 µM
SMILES: CC1=CC(=O)c2ccccc2C1=O [Menadione, menadione]
Fold increase in potency ([7]; with vs without Rifabutin, OVCAR-3): >2.9 fold | Fold increase in potency [6]: 2 fold

SMILES: COc1cc2c(cc1OC)CN(CCc1ccc(NC(=O)c3cccc4c(=O)c5cccc(OC)c5[nH]c34)cc1)CC2 [elacridar]
total intracellular ROS [1]: induced ROS | total intracellular ROS (ROS in G3 lymphoma cells): induced ROS | total intracellular ROS [2]: induced ROS | calcium mobilization (calcium in G3 cells): induced calcium in a similar manner as RTI-79

SMILES: Cc1c2oc3c(C)ccc(C(=O)N[C@@H]4C(=O)N[C@H](C(C)C)C(=O)N5CCC[C@H]5C(=O)N(C)CC(=O)N(C)[C@@H](C(C)C)C(=O)O[C@@H]4C)c3nc-2c(C(=O)N[C@@H]2C(=O)N[C@H](C(C)C)C(=O)N3CCC[C@H]3C(=O)N(C)CC(=O)N(C)[C@@H](C(C)C)C(=O)O[C@@H]2C)c(N)c1=O [Actinomycin D, actinomycin D] (I: T[dV]P[Sar][NMeV] / II: T[dV]P[Sar][NMeV]; ester I:1-I:C, II:1-II:C; linker I:N-II:N via Actinocin(9to1))
IC50 ([8]; therapeutic drug alone, MES-SA-Dx5, read-out: IC50): 0.03 µM | IC50 ([8]; therapeutic drug with Rifabutin, MES-SA-Dx5, read-out: IC50 (μM) with Rifabutin): 0.01 µM | Fold increase in potency ([8]; with vs without Rifabutin, MES-SA-Dx5): 3 fold | IC50 [9, 13]: 0.04 µM | IC50 [9, 14]: < 0.008 µM | Fold increase in potency ([9]; with vs without Rifabutin): >5 fold

SMILES: CO[C@H]1/C=C/O[C@@]2(C)Oc3c(C)c(O)c4c(c3C2O)C2=NC3(CCN(C(=O)OCC(C)C)CC3)NC2=C(NC(=O)/C(C)=C\C=C\[C@H](C)[C@H](O)[C@@H](C)[C@@H](O)[C@@H](C)[C@H](OC(C)=O)[C@@H]1C)C4=O (stereo partly drawn) [RTI-175, 11-deoxy-11-hydroxy-4-deoxy-3,4[2-spiro-[1-(isobutyloxycarbonyl)-piperidin-4-yl]]-(1H)-imidazo-(2,5-dihydro)rifamycin S]
Magnitude of potentiation in combination with doxorubicin ([7]; OVCAR-3, ovarian carcinoma): + (potentiation between 1.2 to 2.0 fold increase) | Magnitude of potentiation in combination with doxorubicin [8]: + (potentiation between 1.2 to 2.0 fold increase) | Magnitude of potentiation in combination with doxorubicin (lymphoma cell line G3): ++ (potentiation between 2.1 to 5 fold increase) | Fold increase in potency over DOX alone (lymphoma cell line G3): 2.2 fold | Magnitude of potentiation in combination with doxorubicin [3]: ++ (potentiation between 2.1 to 5 fold increase) | Magnitude of potentiation in combination with doxorubicin [4]: +++ (potentiation greater than 5 fold increase) | Magnitude of potentiation in combination with doxorubicin [10]: ++ (potentiation between 2.1 to 5 fold increase)

SMILES: COC1C=COC2(C)Oc3c(C)c(O)c4c(c3C2=N)C2=NC3(CCN(C(=O)OCC(C)C)CC3)NC2=C(NC(=O)C(C)=CC=CC(C)C(O)C(C)C(O)C(C)C(OC(C)=O)C1C)C4=O (stereo not drawn) [RTI-81, 11-deoxy-11-imino-4-deoxy-3,4[2-spiro-[1-(isobutyloxycarbonyl)-piperidin-4-yl]]-(1H)-imidazo-(2,5-dihydro)rifamycin S]
Magnitude of potentiation in combination with doxorubicin [8]: ++ (potentiation between 2.1 to 5 fold increase) | Magnitude of potentiation in combination with doxorubicin (lymphoma cell line G3): +++ (potentiation greater than 5 fold increase) | IC50 (lymphoma cell line G3; analog alone, read-out: IC50): > 64 µM | IC50 (lymphoma cell line G3; [12]): 0.3 µM | Magnitude of potentiation in combination with doxorubicin [4]: +++ (potentiation greater than 5 fold increase) | longer life than doxorubicin only ([11]; DOX 3.3 mg/kg iv + RTI-81 10 mg/kg by gavage twice weekly): 27% | mean lifespan ([11]; doxorubicin+RTI-81 group): 42.6 | median lifespan ([11]; doxorubicin+RTI-81 group): 42 | Magnitude of potentiation in combination with doxorubicin [10]: + (potentiation between 1.2 to 2.0 fold increase)
